The source of these data is ChEMBL document CHEMBL1201862, “PubChem BioAssay data set” (2004).

Calls of active or inactive are those of the source.

Test [1] relates to Danio rerio. Put plainly: In Vivo Angiogenesis Dose-Response Confirmation. [Related pubchem assays: 732 (Assay preceding this confirmatory assay.)]. It counts as functional, organism-based.
Test [2] has as its target T1, fMet-Leu-Phe receptor (Homo sapiens, UniProt P21462).
T1 sequence (P21462 whole entry): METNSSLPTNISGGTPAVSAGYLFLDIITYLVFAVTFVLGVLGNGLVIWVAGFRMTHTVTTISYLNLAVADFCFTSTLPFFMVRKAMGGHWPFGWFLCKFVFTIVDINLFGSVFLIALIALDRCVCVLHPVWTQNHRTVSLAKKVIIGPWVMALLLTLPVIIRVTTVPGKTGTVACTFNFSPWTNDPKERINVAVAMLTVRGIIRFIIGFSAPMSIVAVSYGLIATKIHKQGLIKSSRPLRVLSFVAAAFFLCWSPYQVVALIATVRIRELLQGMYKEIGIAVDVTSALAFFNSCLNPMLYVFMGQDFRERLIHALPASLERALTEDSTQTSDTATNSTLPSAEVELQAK
Put plainly: formyl peptide receptor binders – dose response (AID 519). The class given is functional.

Test [3] can be described thus: Luminescent dose response cell-based high throughput screening assay for inhibitors of the Janus kinase 2 mutant JAK2V617F. [Related pubchem assays: 1446 (Primary screen.), 1521 (Confirmation assay.), 1486 (Counter screen.)]. The class given is functional.
The target of test [4] is T2, Heat shock factor protein 1 (Mus musculus, UniProt P38532).
T2 sequence (P38532 whole entry): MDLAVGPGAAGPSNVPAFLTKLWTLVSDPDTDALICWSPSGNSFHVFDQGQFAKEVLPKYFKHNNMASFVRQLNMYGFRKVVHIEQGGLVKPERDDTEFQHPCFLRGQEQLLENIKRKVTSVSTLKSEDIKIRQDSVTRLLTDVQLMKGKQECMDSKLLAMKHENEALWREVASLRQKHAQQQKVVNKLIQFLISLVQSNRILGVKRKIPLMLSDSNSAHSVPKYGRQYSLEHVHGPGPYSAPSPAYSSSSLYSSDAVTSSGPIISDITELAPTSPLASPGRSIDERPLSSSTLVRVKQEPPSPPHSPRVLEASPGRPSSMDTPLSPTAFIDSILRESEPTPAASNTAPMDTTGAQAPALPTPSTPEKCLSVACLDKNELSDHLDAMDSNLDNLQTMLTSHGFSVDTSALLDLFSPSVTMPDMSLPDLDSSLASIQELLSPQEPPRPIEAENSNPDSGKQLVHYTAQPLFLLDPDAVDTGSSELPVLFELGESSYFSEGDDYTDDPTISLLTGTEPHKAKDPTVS
Put plainly: enhancement of HSF1-driven luciferase signal – cell-based, NIH3T3, luminescence, dose retest, confirmation (AID 435004).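 Also: stress induced by proteasome inhibitor MG132 added 30 min after compound; luciferase reporter driven by HSF1 response element in NIH3T3 cells; actives raise luminescence as potentiators of the MG132 stress response.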 It counts as functional.

Test [5] concerns the target Bifunctional protein GlmU (Mycobacterium tuberculosis, UniProt P9WMN3). Put plainly: Inhibitors of Mycobacterial Glucosamine-1-phosphate acetyl transferase (GlmU). Secondary screen. More on the design: species or system Mycobacterium tuberculosis H37Rv.
Test [6] deals with 5-hydroxytryptamine receptor 1A (Homo sapiens, UniProt P08908). It counts as functional.
Sequence of 5-hydroxytryptamine receptor 1A (P08908 whole entry): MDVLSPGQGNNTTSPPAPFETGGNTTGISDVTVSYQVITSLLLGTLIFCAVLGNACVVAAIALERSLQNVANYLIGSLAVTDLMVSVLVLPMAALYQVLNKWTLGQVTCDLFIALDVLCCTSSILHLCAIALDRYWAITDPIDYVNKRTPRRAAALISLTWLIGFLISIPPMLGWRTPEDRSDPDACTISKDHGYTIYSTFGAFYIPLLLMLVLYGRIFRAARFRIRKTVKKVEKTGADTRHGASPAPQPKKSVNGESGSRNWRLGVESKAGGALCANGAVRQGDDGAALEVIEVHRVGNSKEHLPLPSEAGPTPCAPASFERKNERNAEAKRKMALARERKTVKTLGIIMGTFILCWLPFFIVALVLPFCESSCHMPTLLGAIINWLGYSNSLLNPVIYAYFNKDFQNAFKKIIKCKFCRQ
Test [7] can be described thus: P. falciparum Dd2 growth inhibitors, dose response, SYBR Green, cherry-picked samples (AID 1159567). The class given is functional, cell-based.
A short description of test [8]: toxicity to human hepatoma HepG2 cells – cell-based, cherry-picked samples, cytotoxicity control, dose response (AID 1159577). It counts as functional.
Test [9] can be described thus: growth inhibition of yeast DHODH-expressing 3D7 parasites – SYBR Green, dry powder samples, dose response (AID 1159570).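 Also: parasite growth measured after 72 hours of compound exposure.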 It counts as functional, cell-based.
Test [10] can be described thus: growth inhibition of PfATP4-mutant resistant parasites – NITD609-resistant line, SYBR Green, dry powder, dose response (AID 1159571).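 Also: parasites synchronized at ring stage by sorbitol before testing.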 The class given is functional, cell-based.
The nature of test [11]: Dd2 malaria parasite growth inhibition potency – SYBR Green, dry powder samples, dose response (AID 1159566).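 Also: potency for growth inhibition with lower SYBR green DNA signal.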 The class given is functional, cell-based.
Test [12] can be described thus: cytotoxicity toward Colo320 cells – cell-based, CellTiter-Glo luminescence, IC50, dose response (AID 1117334). The note with it: COLO 320. The class given is functional.
Test [13] in a line: SNU-C1 cell viability reduction, dose response, CellTiter-Glo luminescence (AID 1117323). It counts as functional, cell-based.
Test [14] is described as follows: Reduced DLD-1 viability, concentration-response, CellTiter-Glo luminescence (AID 1117352). It counts as functional.
Test [15] is described as follows: cytotoxicity toward HT-29 cells – cell-based, CellTiter-Glo luminescence, IC50, dose response (AID 1117330). The class given is functional.
Test [16] can be described thus: HCT116 cell viability decrease, GSK3B pretreatment – CellTiter-Glo, IC50, dose response (AID 1117339). The note with it: HCT-116. The class given is functional.
Test [17] in a line: cytotoxicity toward HCT116 cells – cell-based, CellTiter-Glo luminescence, IC50, dose response (AID 1117332). It counts as functional. The note with it: HCT-116.
Test [18] is described as follows: CellTiter-Glo luminescence survival assay, SW480 colon tumor line, concentration-response curve, half-maximal inhibitory concentration (AID 1117338). The class given is functional.
Test [19] is described as follows: RKO cell viability reduction, dose response, CellTiter-Glo luminescence (AID 1117322). It counts as functional.

Sequence of Bifunctional protein GlmU (P9WMN3 whole entry): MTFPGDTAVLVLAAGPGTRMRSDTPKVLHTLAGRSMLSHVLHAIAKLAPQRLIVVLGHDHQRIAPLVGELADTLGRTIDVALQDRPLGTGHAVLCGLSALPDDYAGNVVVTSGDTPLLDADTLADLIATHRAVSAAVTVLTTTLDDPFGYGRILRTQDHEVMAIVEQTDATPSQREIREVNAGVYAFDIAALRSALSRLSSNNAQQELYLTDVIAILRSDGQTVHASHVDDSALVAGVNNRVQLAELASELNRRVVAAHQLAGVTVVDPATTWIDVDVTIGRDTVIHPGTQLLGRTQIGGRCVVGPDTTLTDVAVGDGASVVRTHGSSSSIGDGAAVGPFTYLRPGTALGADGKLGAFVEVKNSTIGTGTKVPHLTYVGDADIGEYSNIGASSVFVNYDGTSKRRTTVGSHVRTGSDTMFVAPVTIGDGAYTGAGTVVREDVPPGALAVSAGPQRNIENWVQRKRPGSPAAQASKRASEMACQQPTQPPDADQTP

As for `Cc1ccc2c(c1)/C(=C1/Nc3ccc(Br)cc3/C1=N\O)C(=O)N2`, the IC50 in test [1] is 2.5 µM (active).
As to `Cc1cccc(OCC(=O)Nc2cc(C)ccc2O)c1`, in test [2], the Ki is > 66.7 µM (inactive). Further, the IC50 in test [3] was 0.676 µM (active). Further, in [4], the 50% effective concentration (EC50) was 4.61 µM (active).
In the case of `Nc1nonc1C(=O)N/N=C/c1ccc(-c2cccc(C(=O)O)c2)o1`, the concentration for half-maximal inhibition (IC50) in test [5] is 188 µM (active).
On to `CNCCc1c[nH]c2ccccc12`, for which the 50% effective concentration (EC50) in test [6] was 5.1 µM (active).
Turning to `CCS(=O)(=O)N1CCCCN2[C@H](C1)[C@@H](c1ccc(C#Cc3ccccc3OC)cc1)[C@@H]2CO`, the values for the concentration at half-maximal activity (AC50) in [7] and in test [8] were 4.67 µM (active) and > 39 µM (inactive), respectively.
The like results for `COc1ccc2c3c(n(C)c2c1)[C@H](CO)NCC31CCN(Cc2ccc(Cl)cc2)CC1` were, in that order, 0.504 µM (active) and 17.7 µM (active).
Turning to `COc1ccc(-c2ccccc2[C@H]2[C@@H](C#N)N(C(=O)NC(C)C)[C@H]2CO)cc1`, the AC50 in test [7] is 2.04 µM (active); in [9] it was 2.01 µM (active); in test [10], 4.81 µM (active); in test [11], 2.21 µM (active).
With `O=C(O)CCC(=O)OC[C@@H](NC(=O)C(Cl)Cl)[C@H](O)c1ccc([N+](=O)[O-])cc1` [CHLORAMPHENICOL SODIUM SUCCINATE], the IC50 in test [12], in [13], in test [14], in test [15], in test [16] and in [17] was > 20 µM (inactive) each time. The IC50 in test [18] and in test [19] was > 20 µM (inactive) throughout.
Take `CCCn1cnc2c1c(=O)n(CCCCC(C)=O)c(=O)n2C` [PROPENTOFYLLINE]: the IC50 in [12], in test [13], in test [14], in test [15], in test [16] and in test [17] was > 20 µM (inactive) in each case. Besides, the IC50 in [18] and in [19] was > 20 µM (inactive) each time.
